We go through two compounds from US9133235B2, “Macrocyclic antagonists of the motilin receptor for treatment of gastrointestinal dysmotility disorders” (Ocera Therapeutics, Inc., priority 2006, dated 2015).

Broadly, the IC50 is the concentration that gives 50% inhibition.

Bounds are passed on as bounds.

The target in series [1] is T1, CYP2B6 (Homo sapiens, UniProt P20813).
T1 construct: purchased BD Gentest, Becton-Dickinson (Supersomes); host or cells: insect cells (microsomes)
T1 sequence (P20813 1-491): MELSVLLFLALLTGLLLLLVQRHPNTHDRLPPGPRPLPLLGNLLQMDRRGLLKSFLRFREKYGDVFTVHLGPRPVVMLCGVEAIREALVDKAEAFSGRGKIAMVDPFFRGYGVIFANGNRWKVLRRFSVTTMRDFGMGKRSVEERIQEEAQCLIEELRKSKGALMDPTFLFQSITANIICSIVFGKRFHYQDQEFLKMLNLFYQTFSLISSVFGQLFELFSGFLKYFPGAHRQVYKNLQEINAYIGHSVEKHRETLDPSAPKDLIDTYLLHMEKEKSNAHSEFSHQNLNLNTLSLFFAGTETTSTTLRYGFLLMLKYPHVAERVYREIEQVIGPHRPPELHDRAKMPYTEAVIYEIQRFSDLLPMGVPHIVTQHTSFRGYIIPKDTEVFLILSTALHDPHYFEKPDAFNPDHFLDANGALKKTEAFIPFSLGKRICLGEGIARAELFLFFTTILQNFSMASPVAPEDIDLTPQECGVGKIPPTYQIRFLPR
Briefly: Cytochrome P450 inhibition, CYP2B6. Format: in vitro ADME. As to conditions: Supersomes; read-out: IC50 (μM) 2B6. The text has this:
(§1) F. Assay for Cytochrome P450 Inhibition
(§2) Cytochrome P450 enzymes are implicated in the phase I metabolism of drugs. The majority of drug-drug interactions are metabolism-based and, moreover, these interactions typically involve inhibition of cytochrome P450s. Six CYP450 enzymes (CYP1A2, CYP2C8, CYP2C9, CYP2C19, CYP2D6 and CYP3A4) appear to be commonly responsible for the metabolism of most drugs and the associated drug-drug interactions. Assays to determine the binding of compounds of the invention to the various metabolically important isoforms of cytochrome P450 metabolizing enzymes are commercially available, for example NoAb BioDiscoveries (Mississaugua, ON, Canada) and Absorption Systems (Exton, Pa., USA). As well, a number of appropriate methods have been described or reviewed in the literature. (White, R. E. Ann. Rev. Pharmacol. Toxicol. 2000, 40, 133-157; Li, A. P. Drug. Disc. Today 2001, 6, 357-366; Turpeinen, M.; Korhonen, L. E. Tolonen, A.; et al. Eur. J. Pharm. Sci. 2006, 29, 130-138.)
(§3) The concentration of the inhibitor or test compound that inhibited metabolite formation by 50% (IC50) was calculated by non-linear regression analysis of the % inhibition vs. log concentration (M) curve.

For series [2], the target named is T2, CYP2A6 (Homo sapiens, UniProt P11509).
T2 construct: purchased BD Gentest, Becton-Dickinson (Supersomes); host or cells: insect cells (microsomes)
T2 sequence (P11509 1-494): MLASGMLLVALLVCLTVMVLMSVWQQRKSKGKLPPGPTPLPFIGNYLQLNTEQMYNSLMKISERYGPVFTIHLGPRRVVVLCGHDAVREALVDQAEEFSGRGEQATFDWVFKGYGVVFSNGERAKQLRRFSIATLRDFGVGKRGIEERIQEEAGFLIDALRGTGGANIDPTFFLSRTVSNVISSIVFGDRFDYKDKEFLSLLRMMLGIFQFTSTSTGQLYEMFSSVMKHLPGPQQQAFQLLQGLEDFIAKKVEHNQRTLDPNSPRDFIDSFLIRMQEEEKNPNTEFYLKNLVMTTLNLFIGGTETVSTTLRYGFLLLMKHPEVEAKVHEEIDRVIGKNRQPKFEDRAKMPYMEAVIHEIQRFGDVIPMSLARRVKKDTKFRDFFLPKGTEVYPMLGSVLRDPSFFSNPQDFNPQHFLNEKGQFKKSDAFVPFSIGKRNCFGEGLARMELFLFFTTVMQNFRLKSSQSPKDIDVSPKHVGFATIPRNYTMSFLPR
Briefly: Cytochrome P450 inhibition, CYP2A6. Format: in vitro ADME. As to conditions: Supersomes; read-out: IC50 (μM) 2A6.
From the text: as §1, §2, §3

As to `CCC[C@@H]1NC(=O)[C@@H](C(C)C)NC(=O)[C@@H](Cc2cccc(F)c2)N[C@@H](C)COc2ccccc2CCCNC1=O` [Compound 551], the IC50 in series [1] and in series [2] was above 100 µM each time.

With `CCC[C@@H]1NC(=O)[C@@H](C(C)C)NC(=O)[C@@H](Cc2ccc(O)c(C(C)(C)C)c2)NCCOc2ccccc2CCCNC1=O` [Compound 553], the IC50 in series [1] and in series [2] was above 100 µM each time.
